Laboratory results taken from ChEMBL document CHEMBL1201862, “PubChem BioAssay data set” (2004).
“And” between values parts separate entries of the source, which are not always exact repeats. Equal entries are not always repeated.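 Briefly, cells in 96-well plates were exposed to five compound concentrations for 48 h, and endpoints were estimated by linear interpolation. GI50 is the concentration that inhibits growth by half.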 The source made the active and inactive calls. No stated cut-off is given here; in the data, active = GI50 up to about 1.1 µM and inactive = higher.

Legend:
Assay in all cases: NCI tumour cell line growth inhibition, 48 h
[1] = system: SK-OV-3
[2] = system: A549
[3] = system: NCI-H23
[4] = system: UACC-257
[5] = system: SNB-19
[6] = system: COLO 205
[7] = system: SF-295
[8] = system: HOP-62
[9] = system: UO-31
[10] = system: SN12C
[11] = system: KM12
[12] = system: SF-268
[13] = system: SK-MEL-28
[14] = system: HCT-116
[15] = system: M14
[16] = system: TK-10
[17] = system: SW-620
[18] = system: HCC 2998

Measured: GI50

COc1cccc2c1C1=CC(=O)CCC1C(C)(C)O2 (configuration not stated)
inactive: [1] > 100 µM | [2] > 100 µM | [3] > 100 µM | [4] > 100 µM | [5] > 100 µM | [6] 67.6 µM | [7] > 100 µM | [8] > 100 µM | [9] > 100 µM | [10] > 100 µM | [11] 45.6 µM | [12] 44.1 µM | [13] > 100 µM | [14] 47.6 µM | [15] > 100 µM | [16] > 100 µM | [17] 13.4 µM

C[N+](C)(C)CCc1ccccc1
inactive: [1] > 100 µM | [2] > 100 µM | [3] > 100 µM | [4] > 100 µM | [18] > 100 µM | [5] > 100 µM | [6] > 100 µM | [7] > 100 µM | [8] > 100 µM | [9] > 100 µM | [10] > 100 µM | [11] > 100 µM | [12] > 100 µM | [13] > 100 µM | [14] > 100 µM | [15] > 100 µM | [16] > 100 µM | [17] > 100 µM

O=C(CC(=O)n1nc(-c2ccccc2)c(/N=N/c2ccc([N+](=O)[O-])cc2)c1-c1ccccc1)Nc1ccc(Cl)cc1
inactive: [1] 18.8 µM | [2] 15.9 µM | [3] 27.2 µM | [4] 34.8 µM | [18] 20.8 µM | [5] 26.4 µM | [6] 18 µM | [7] 40.6 µM | [8] 14.5 µM | [9] 11.9 µM | [10] 42.1 µM | [11] 12 µM | [12] 13.5 µM | [13] 17.9 µM | [14] 12.9 µM | [15] 13.5 µM | [16] 22.6 µM | [17] 21.6 µM

O=C(Cc1ccc(F)cc1)NC1=C(Cl)C(=O)c2ccccc2C1=O
inactive: [1] 4.94 µM | [2] 3.62 µM | [3] 1.67 µM | [4] 2.48 µM | [18] 4.22 µM | [5] 5.58 µM | [6] 3.66 µM | [7] 3.83 µM | [8] 10 µM | [9] 2.51 µM | [10] 3.38 µM | [11] 3.52 µM | [12] 4.05 µM | [13] 4.05 µM | [14] 2.36 µM | [15] 3.16 µM | [16] 6.9 µM | [17] 2.24 µM

C(=C\c1c2oc(-c3ccccc3)cc(-c3ccccc3)c-2c2ccccc12)/C=C1\c2ccccc2-c2c(-c3ccccc3)cc(-c3ccccc3)[o+]c21.[O-][Cl+3]([O-])([O-])[O-]
inactive: [1] > 100 µM | [2] > 100 µM | [3] > 100 µM | [4] > 100 µM | [18] > 100 µM | [5] > 100 µM | [6] > 100 µM | [7] > 100 µM | [8] > 100 µM | [9] > 100 µM | [10] > 100 µM | [12] > 100 µM | [13] > 100 µM | [14] > 100 µM | [15] 37 µM | [16] > 100 µM | [17] > 100 µM

Cc1c2cc[n+](C)cc2c(C)c2c1[nH]c1ccc(O)c(OCC(F)(F)F)c12
active: [3] 0.984 µM | [5] 0.218 µM | [7] 0.839 µM | [10] 0.34 µM | [12] 0.164 µM
inactive: [1] 6.75 µM | [2] 1.87 µM | [4] 6.31 µM | [18] 4.55 µM | [6] 1.77 µM | [8] 1.12 µM | [9] 7.06 µM | [13] 5.65 µM | [14] 4.97 µM | [15] 6.22 µM | [16] 11.2 µM | [17] 6.67 µM

CN(C)/N=N/c1ccccc1
inactive: [1] > 100 µM | [2] 68.5 µM | [3] > 100 µM | [18] 38.1 µM | [5] > 100 µM | [6] > 100 µM | [7] 1.35 µM | [9] 26.8 µM | [10] > 100 µM | [11] 12.7 µM | [12] > 100 µM | [13] > 100 µM | [14] > 100 µM | [15] > 100 µM | [16] > 100 µM | [17] > 100 µM

Cc1cc(C)c(-n2c(-c3ccccc3)cs/c2=N\N=C2C=C(C(C)(C)C)C(=O)C(C(C)(C)C)=C2)c(C)c1
inactive: [1] > 100 µM | [2] > 100 µM | [3] 60.5 µM | [4] > 100 µM | [18] > 100 µM | [5] > 100 µM | [6] > 100 µM | [7] > 100 µM | [8] > 100 µM | [10] > 100 µM | [11] > 100 µM | [12] > 100 µM | [13] > 100 µM | [14] 64.6 µM | [15] > 100 µM | [16] > 100 µM | [17] > 100 µM

CC(C)N1CC2CC(CN(C(=O)c3ccc(Cl)cc3)C2)C1
inactive: [1] > 100 µM | [2] > 100 µM | [3] > 100 µM | [4] > 100 µM | [5] > 100 µM | [6] > 100 µM | [7] > 100 µM | [8] > 100 µM | [9] > 100 µM | [10] > 100 µM | [11] > 100 µM | [12] > 100 µM | [13] > 100 µM | [15] > 100 µM | [16] > 100 µM | [17] > 100 µM

CCOC(=O)C(C(O)c1ccc([N+](=O)[O-])cc1)P(=O)(OCC)OCC (configuration not stated)
inactive: [2] > 100 µM | [3] > 100 µM | [18] > 100 µM | [5] > 100 µM | [7] > 100 µM | [8] > 100 µM | [10] > 100 µM | [11] > 100 µM | [12] > 100 µM | [13] > 100 µM | [14] > 100 µM | [15] > 100 µM | [16] > 100 µM | [17] 57.3 µM

C=C1C(=O)OC2C1C(OC(=O)/C(=C/C)COC(C)=O)CC1(CO1)C1C(OC(=O)/C(=C/C)CO)C=C(C)C21 (configuration not stated)
inactive: [1] 17.1 µM | [2] 6.9 µM | [3] 1.63 µM | [4] 2.04 µM | [18] 1.92 µM | [5] 3.36 µM | [7] 5.16 µM | [9] 3.14 µM | [10] 1.82 µM | [11] 3.94 µM | [12] 2.75 µM | [13] 1.82 µM | [14] 1.63 µM | [15] 1.67 µM | [16] 2.3 µM
active: [6] 1.09 µM | [17] 0.736 µM

COc1ccc2c(c1)O[C@@H]1c3ccc(OC)cc3OC[C@H]21
inactive: [1] 57 µM | [2] 29.2 µM | [3] 23.2 µM | [4] > 10 µM | [18] 35.2 µM | [5] 54.3 µM | [7] 26.9 µM | [8] 72.8 µM | [9] 30.1 µM | [10] 55.2 µM | [11] 28.4 µM | [12] 38.2 µM | [13] 40.5 µM | [14] 27.7 µM | [15] 26.9 µM | [16] 35.6 µM | [17] 20.8 µM

Cc1cc(C)c(C(=O)C(C)C(c2ccccc2)c2ccc(Cl)cc2)c(C)c1 (configuration not stated)
inactive: [1] > 100 µM | [2] > 100 µM | [3] > 100 µM and 60.7 µM | [4] 44.2 µM and 38.5 µM | [6] > 100 µM | [7] > 100 µM | [8] > 100 µM | [9] 50.8 µM | [10] > 100 µM | [11] > 100 µM and 96.4 µM | [12] > 100 µM | [13] > 100 µM | [14] > 100 µM and 56.1 µM | [15] 82.8 µM and 75.7 µM | [16] > 100 µM | [17] > 100 µM

CN(CCN1C(=O)c2cc([N+](=O)[O-])cc3cc([N+](=O)[O-])cc(c23)C1=O)CCN1C(=O)c2cc([N+](=O)[O-])cc3cc([N+](=O)[O-])cc(c23)C1=O
active: [2] 0.887 µM | [18] 0.491 µM | [6] 0.393 µM | [7] 0.59 µM | [10] 0.332 µM | [11] 0.681 µM | [12] 0.458 µM | [13] 0.798 µM | [14] 0.153 µM | [15] 0.652 µM | [17] 0.0741 µM
inactive: [1] 2.31 µM | [3] 1.74 µM | [4] 1.21 µM | [8] 2.65 µM | [9] 4.8 µM | [16] 8.73 µM

COc1cc2c(cc1C)[n+]([O-])c(C)c(C(=O)C/C(=N/NC(=O)C[N+](C)(C)C)C(=O)Nc1cccc(Cl)c1C)[n+]2[O-]
inactive: [2] > 100 µM | [3] > 100 µM | [4] > 100 µM | [18] > 100 µM | [5] > 100 µM | [6] > 100 µM | [7] > 100 µM | [8] > 100 µM | [9] > 100 µM | [10] > 100 µM | [11] > 100 µM | [12] > 100 µM | [13] > 100 µM | [14] > 100 µM | [15] > 100 µM | [16] > 100 µM | [17] > 100 µM
